This passage reports IC50 results from patent US10597383B2, “Bicyclic proline compounds” (Genentech, Inc., priority 2016, dated 2020).

human TRPA1, sequence (O75762 whole entry): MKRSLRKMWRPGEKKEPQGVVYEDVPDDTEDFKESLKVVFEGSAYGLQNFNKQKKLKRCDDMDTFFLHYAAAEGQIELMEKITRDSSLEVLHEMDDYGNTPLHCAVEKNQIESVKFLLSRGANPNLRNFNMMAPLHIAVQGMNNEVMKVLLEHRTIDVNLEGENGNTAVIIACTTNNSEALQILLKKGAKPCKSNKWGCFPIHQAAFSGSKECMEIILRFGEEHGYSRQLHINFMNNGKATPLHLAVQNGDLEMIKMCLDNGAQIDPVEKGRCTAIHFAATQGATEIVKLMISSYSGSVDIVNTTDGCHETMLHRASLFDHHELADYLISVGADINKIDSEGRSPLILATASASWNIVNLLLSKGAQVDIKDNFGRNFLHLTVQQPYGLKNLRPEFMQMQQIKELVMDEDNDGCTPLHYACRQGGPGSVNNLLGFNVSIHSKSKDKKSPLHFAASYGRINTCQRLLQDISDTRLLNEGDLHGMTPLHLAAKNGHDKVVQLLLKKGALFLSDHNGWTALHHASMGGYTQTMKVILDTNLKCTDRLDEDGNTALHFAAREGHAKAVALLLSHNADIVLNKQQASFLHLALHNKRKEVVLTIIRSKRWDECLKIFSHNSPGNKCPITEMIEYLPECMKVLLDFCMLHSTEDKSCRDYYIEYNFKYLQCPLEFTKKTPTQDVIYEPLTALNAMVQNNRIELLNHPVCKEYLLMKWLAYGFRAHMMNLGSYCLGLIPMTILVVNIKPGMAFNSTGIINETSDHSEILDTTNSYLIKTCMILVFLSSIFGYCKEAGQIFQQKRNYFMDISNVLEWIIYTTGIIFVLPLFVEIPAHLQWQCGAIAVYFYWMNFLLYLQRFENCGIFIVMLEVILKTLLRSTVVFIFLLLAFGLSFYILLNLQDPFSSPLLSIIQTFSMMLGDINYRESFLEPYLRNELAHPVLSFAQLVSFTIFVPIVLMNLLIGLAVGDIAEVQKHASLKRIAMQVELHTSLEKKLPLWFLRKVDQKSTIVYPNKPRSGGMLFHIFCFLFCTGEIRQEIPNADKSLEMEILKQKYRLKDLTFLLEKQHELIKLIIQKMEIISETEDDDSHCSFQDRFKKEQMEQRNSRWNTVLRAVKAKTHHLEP

One assay concerns the target human TRPA1 (Homo sapiens (Human), UniProt O75762). The experiment in a line: hTRPA1 CHO Ca2+ AUC EVO (IC50); FLIPR Tetra block of cinnamaldehyde induced calcium influx. It counts as cell-based. To be noted: Table 1; CHO cells expressing TRPA1; 75 uM cinnamaldehyde (~EC80) as agonist. On the procedure: IC50 ([…]) of compounds on the human and rat TRPA1 channels were determined using a FLIPR Tetra instrument. CHO cells expressing TRPA1 were plated into 384-well plates, incubated overnight at 37° C., and loaded with BD calcium indicator dye for 1 hr at 37° C. followed by 15 minutes. at room temperature. The assay buffer was Hank's Balanced Salt Solution (HBSS) containing 20 mM HEPES (pH readjusted to 7.4) along with 0.02% BSA.
Following dye load and plate cool down, compounds were added to the cells using FLIPR Tetra. Plates were then incubated with compounds for 20 minutes at room temperature prior to adding agonist. Following this incubation, ˜EC80 concentration of cinnamaldehyde (75 uM for human TRPA1 and 45 uM for rat TRPA1) was added to active the channels and block of cinnamaldehyde induced calcium influx was measured.
IC50 values were fit with a standard Hill function, keeping the Hill coefficient (n) fixed to 1.5. Fixing the Hill coefficient will generally reduce variability of the IC50 determination. The IC50 values were individually examined to make sure the MIN and MAX points were set correctly prior to validation of the results.
As a reminder, the IC50 is the point on the concentration scale where inhibition reaches its midpoint. Regarding `O=C(NCc1cc(-c2cnc(C(F)(F)F)nc2)c(F)cn1)[C@@H]1C2CC(C2)N1S(=O)(=O)c1cc2cc(F)ccc2o1`, the IC50 amounted to 1.08 nM.
Still for that read-out and setting: the figure for `O=C(NCc1cc(-c2cnc(C(F)(F)F)nc2)ccc1F)[C@@H]1C2CC(C2)N1S(=O)(=O)c1ccc(F)cc1` [(2S)-3-(4-fluorophenyl)sulfonyl-N-[[2-fluoro-5-[2-(trifluoromethyl)pyrimidin-5-yl]phenyl]methyl]-3-azabicyclo[2.1.1]hexane-2-carboxamide] is 9.89 nM.
The same measure, in the same setting: the figure for `O=C(NCc1cc(F)cc(-c2cnc(C(F)(F)F)nc2)c1)[C@@H]1C2CC(C2)N1S(=O)(=O)c1ccc(F)cc1` [(2S)-3-(4-fluorophenyl)sulfonyl-N-[[3-fluoro-5-[2-(trifluoromethyl)pyrimidin-5-yl]phenyl]methyl]-3-azabicyclo[2.1.1]hexane-2-carboxamide] is 8.97 nM.
In the case of `O=C(NCc1cc(-c2cnc(C(F)(F)F)nc2)ncc1OC(F)(F)F)[C@@H]1C2CC(C2)N1S(=O)(=O)c1ccc(F)cc1` [(2S)-3-(4-fluorophenyl)sulfonyl-N-[[5-(trifluoromethoxy)-2-[2-(trifluoromethyl)pyrimidin-5-yl]-4-pyridyl]methyl]-3-azabicyclo[2.1.1]hexane-2-carboxamide], the IC50 was found to be 2.77 nM.
On to `O=C(NCc1cc(-c2cnc(C(F)(F)F)nc2)ncc1C(F)(F)F)[C@@H]1C2CC(C2)N1S(=O)(=O)c1ccc(F)cc1` [(2S)-3-(4-fluorophenyl)sulfonyl-N-[[5-(trifluoromethyl)-2-[2-(trifluoromethyl)pyrimidin-5-yl]-4-pyridyl]methyl]-3-azabicyclo[2.1.1]hexane-2-carboxamide], for which the 50% inhibitory concentration (IC50) turned out to be 2.61 nM.
`O=C(NCc1cc(-c2cnc(C(F)(F)F)nc2)ncc1C(F)(F)F)[C@@H]1C2CC(C2)N1S(=O)(=O)c1cc2cc(F)ccc2o1` [(2S)-3-(5-fluorobenzofuran-2-yl)sulfonyl-N-[[5-(trifluoromethyl)-2-[2-(trifluoromethyl)pyrimidin-5-yl]-4-pyridyl]methyl]-3-azabicyclo[2.1.1]hexane-2-carboxamide]: the IC50 is 1.85 nM.
For the compound `O=C(NCc1cc(Cl)nc(-c2cnc(C(F)(F)F)nc2)c1)[C@@H]1C2CC(C2)N1S(=O)(=O)c1ccc(F)cc1` [(2S)-N-[[2-chloro-6-[2-(trifluoromethyl)pyrimidin-5-yl]-4-pyridyl]methyl]-3-(4-fluorophenyl)sulfonyl-3-azabicyclo[2.1.1]hexane-2-carboxamide], the IC50 worked out at 4.64 nM.
As for `O=C(NCc1cc(-c2cnc(C(F)(F)F)nc2)nc(C2CC2)n1)[C@@H]1C2CC(C2)N1S(=O)(=O)c1ccc(F)cc1` [(2S)-N-[[2-cyclopropyl-6-[2-(trifluoromethyl)pyrimidin-5-yl]pyrimidin-4-yl]methyl]-3-(4-fluorophenyl)sulfonyl-3-azabicyclo[2.1.1]hexane-2-carboxamide], the IC50 was found to be 2.15 nM.
Take `O=C(NCc1cc(-c2cnc(C(F)(F)F)nc2)ncc1C(F)F)[C@@H]1C2CC(C2)N1S(=O)(=O)c1ccc(F)c(F)c1` [(2S)-N-[[5-(difluoromethyl)-2-[2-(trifluoromethyl)pyrimidin-5-yl]-4-pyridyl]methyl]-3-(3,4-difluorophenyl)sulfonyl-3-azabicyclo[2.1.1]hexane-2-carboxamide]: the IC50 amounted to 9.01 nM.
The same measure, in the same setting: for `O=C(NCc1cc(-c2cnc(C(F)(F)F)nc2)ncc1C(F)F)[C@@H]1C2CC(C2)N1S(=O)(=O)c1ccc(F)cc1` [(2S)-N-[[5-(difluoromethyl)-2-[2-(trifluoromethyl)pyrimidin-5-yl]-4-pyridyl]methyl]-3-(4-fluorophenyl)sulfonyl-3-azabicyclo[2.1.1]hexane-2-carboxamide] the value was 9.92 nM; for `O=C(NCc1cc(-c2cnc(C(F)(F)F)nc2)ncc1Br)[C@@H]1C2CC(C2)N1S(=O)(=O)c1ccc(F)cc1` [(2S)-N-[[5-bromo-2-[2-(trifluoromethyl)pyrimidin-5-yl]-4-pyridyl]methyl]-3-(4-fluorophenyl)sulfonyl-3-azabicyclo[2.1.1]hexane-2-carboxamide], 3.82 nM.
With `O=C(NCc1cc(-c2cnc(C(F)(F)F)nc2)ncc1Cl)[C@@H]1C2CC(C2)N1S(=O)(=O)c1ccc(F)c(F)c1` [(2S)-N-[[5-chloro-2-[2-(trifluoromethyl)pyrimidin-5-yl]-4-pyridyl]methyl]-3-(3,4-difluorophenyl)sulfonyl-3-azabicyclo[2.1.1]hexane-2-carboxamide], the IC50 worked out at 1.55 nM.
On the same count and under the same terms, the figure for `O=C(NCc1cc(-c2cnc(C(F)(F)F)nc2)cc(C2CC2)n1)[C@@H]1C2CC(C2)N1S(=O)(=O)c1ccc(F)cc1` [(2S)-N-[[6-cyclopropyl-4-[2-(trifluoromethyl)pyrimidin-5-yl]-2-pyridyl]methyl]-3-(4-fluorophenyl)sulfonyl-3-azabicyclo[2.1.1]hexane-2-carboxamide] is 7.24 nM.

The assay is the same for the next values; noted with them: Table 3; CHO cells expressing TRPA1; 75 uM cinnamaldehyde (~EC80) as agonist.
Regarding `O=C(NCc1cc(-c2cnc(C(F)(F)F)nc2)ncn1)[C@@H]1C2CC(C2)N1S(=O)(=O)c1ccc(F)cc1` [compound 1, (2S)-3-(4-fluorophenyl)sulfonyl-N-[[6-[2-(trifluoromethyl)pyrimidin-5-yl]pyrimidin-4-yl]methyl]-3-azabicyclo[2.1.1]hexane-2-carboxamide], the IC50 worked out at 42.9 nM.
The same measure, in the same setting: the figure for `O=C(NCc1cc(-c2cnc(C(F)(F)F)nc2)ncc1F)[C@@H]1C2CC(C2)N1S(=O)(=O)c1ccc(F)cc1` [compound 2, (2S)-3-(4-fluorophenyl)sulfonyl-N-[[5-fluoro-2-[2-(trifluoromethyl)pyrimidin-5-yl]-4-pyridyl]methyl]-3-azabicyclo[2.1.1]hexane-2-carboxamide] is 11.3 nM; for `O=C(NCc1cc(-c2ccc(C(F)(F)F)nc2)ncn1)[C@@H]1C2CC(C2)N1S(=O)(=O)c1ccc(F)cc1` [compound 3, (2S)-3-(4-fluorophenyl)sulfonyl-N-[[6-[6-(trifluoromethyl)-3-pyridyl]pyrimidin-4-yl]methyl]-3-azabicyclo[2.1.1]hexane-2-carboxamide] it is 24.8 nM; for `O=C(NCc1ccnc(-c2cnc(C(F)(F)F)nc2)c1)[C@@H]1C2CC(C2)N1S(=O)(=O)c1ccc(F)cc1` [compound 4, (2S)-3-(4-fluorophenyl)sulfonyl-N-[[2-[2-(trifluoromethyl)pyrimidin-5-yl]-4-pyridyl]methyl]-3-azabicyclo[2.1.1]hexane-2-carboxamide] it is 36.4 nM.
Take `O=C(NCc1cc(Cl)nc(-c2cnc(C(F)(F)F)nc2)c1)[C@@H]1C2CC(C2)N1S(=O)(=O)c1ccc(F)cc1` [compound 5, (2S)-N-[[2-chloro-6-[2-(trifluoromethyl)pyrimidin-5-yl]-4-pyridyl]methyl]-3-(4-fluorophenyl)sulfonyl-3-azabicyclo[2.1.1]hexane-2-carboxamide]: the IC50 is 4.64 nM.
The same measure, in the same setting: the figure for `O=C(NCc1cc(-c2cnc(C(F)(F)F)nc2)c(F)cn1)[C@@H]1C2CC(C2)N1S(=O)(=O)c1ccc(F)cc1` [compound 6, (2S)-3-(4-fluorophenyl)sulfonyl-N-[[5-fluoro-4-[2-(trifluoromethyl)pyrimidin-5-yl]-2-pyridyl]methyl]-3-azabicyclo[2.1.1]hexane-2-carboxamide] is 16.8 nM; for `O=C(NCc1cc(-c2cnc(C(F)(F)F)nc2)c(Cl)cn1)[C@@H]1C2CC(C2)N1S(=O)(=O)c1ccc(F)cc1` [compound 7, (2S)-N-[[5-chloro-4-[2-(trifluoromethyl)pyrimidin-5-yl]-2-pyridyl]methyl]-3-(4-fluorophenyl)sulfonyl-3-azabicyclo[2.1.1]hexane-2-carboxamide] it is 20.8 nM.
